Results on six molecules are retold here after patent publication EP0033789A1, “2-alpha-Methyl-dopaminimino-6,7-dihydroxy-1,2,3,4-tetrahydronaphthalene, its salts, and a process for preparation thereof” (priority 1980, dated 1981).

Structures are written as SMILES. Read-outs that look alike come from different tables or passages of the source.

The experiment relates to anesthetized, open-chested dogs. Description: Inotropic, chronotropic and pressor/depressor activities in anesthetized, open-chested dogs (Walton-Brodie strain gauge, ventricular and aortic catheters). The format is in vivo. The note with it: for ED50 / ED (100% increase) / ED (75% increase) / ED (150% increase): Canis lupus familiaris; for ED50: read-out: Inotropic Potency CF50; for ED (100% increase): read-out: Inotropic Potency CF100; for ED (75% increase): read-out: Inotropic Potency dP/dt75; for ED (150% increase): read-out: Inotropic Potency dP/dt150; for Cardioselectivity: Change in diastolic blood pressure obtained at CF50 / Inotropic Selectivity: Change in heart rate obtained at CF50: at the dose giving 50% increase in cardiac contractile force; for Cardioselectivity: Change in diastolic blood pressure obtained at dP/dt75 / Inotropic Selectivity: Change in heart rate obtained at dP/dt75: at the dose giving 75% increase in left ventricular dP/dt; for Cardioselectivity: Change in diastolic blood pressure obtained at CF100 / Inotropic Selectivity: Change in heart rate obtained at CF100: at the dose giving 100% increase in cardiac contractile force; for Cardioselectivity: Change in diastolic blood pressure obtained at dP/dt150 / Inotropic Selectivity: Change in heart rate obtained at dP/dt150: at the dose giving 150% increase in left ventricular dP/dt. The method, then: The following tests were conducted: • In anesthetized, open-chested dogs, instrumented with a Walton-Brodie strain gauge to measure cardiac contractile force, a ventricular catheter to measure left ventricular dP/dt and an aortic catheter to measure diastolic blood pressure and heart rate. Contractile force and L.V. dP/dt are indices of cardiac contractility and provide information on the inotropic state of the heart. The experimental standard drugs are compared by normalizing pressor/depressor and heart rate responses to a given inotropic effect. Cardioselective inotropic agents will produce minimal diastolic pressure changes for any given inotropic effect. Likewise, inotropic selective agents will produce minimal heart rate changes for any given inotropic effect.

The mark [1] stands for this setting: dose required to produce 50% increase in cardiac contractile force (CF), means ± SEM.
Setting [2] is: dose required to produce 75% increase in left ventricular dP/dt, means ± SEM.
Where [3] appears, read: dose required to produce 100% increase in cardiac contractile force (CF), means ± SEM.
Setting [4] is: dose required to produce 150% increase in left ventricular dP/dt, means ± SEM.

As to `NC1CCc2cc(O)c(O)cc2C1` (stereo not shown) [C, 2-amino-6,7-dihydroxy-1,2,3,4-tetrahydro-naphthalene], the ED50 was 44.9 ± 3.3 µg/kg, the ED (100% increase) came out at 119 ± 34.7 µg/kg, the ED (75% increase) stood at 40.4 ± 3.1 µg/kg and the ED (150% increase) was found to be 75.6 ± 5.8 µg/kg. In addition, where the note is “means ± SEM”, the “Cardioselectivity: Change in diastolic blood pressure obtained at CF50” value (“Cardioselectivity: Change … at CF50” below) turned out to be 31 ± 9 mm Hg, the “Inotropic Selectivity: Change in heart rate obtained at CF50” value (“Inotropic Selectivity: Change … at CF50” for short) is listed as -12 ± 9 BPM, the “Cardioselectivity: Change in diastolic blood pressure obtained at dP/dt75” value (“Cardioselectivity: Change … at dP/dt75” below) is on record as 30 + 5 mm Hg and the “Inotropic Selectivity: Change in heart rate obtained at dP/dt75” value (“Inotropic Selectivity: Change … at dP/dt75” below) is recorded as -12 ± 10 BPM. For the same molecule, where the note is “means ± SEM”, the “Cardioselectivity: Change in diastolic blood pressure obtained at CF100” value (from here on “Cardioselectivity: Change … at CF100”) was 61 ± 10 mm Hg, the “Inotropic Selectivity: Change in heart rate obtained at CF100” value (shortened to “Inotropic Selectivity: Change … at CF100”) is reported as 21 ± 17 BPM, the “Cardioselectivity: Change in diastolic blood pressure obtained at dP/dt150” value (from here on “Cardioselectivity: Change … at dP/dt150”) stood at 51 ± 5 mm Hg and the “Inotropic Selectivity: Change in heart rate obtained at dP/dt150” value (from here on “Inotropic Selectivity: Change … at dP/dt150”) is given as 5 ± 8 BPM.

Turning to `COc1cc2c(cc1OC)CC(NC(C)CCc1ccc(O)cc1)CC2` (stereo not shown) [A, 2-(3-p-hydroxyphenyl-1-methylpropyl) amino-6,7-dimethoxy-1,2,3,4-tetrahydronaphthalene], under setting [1], the ED50 amounted to 158 µg/kg. The ED (75% increase) under setting [2] turned out to be 262 µg/kg. Besides, under setting [3], the ED (100% increase) came to 333 µg/kg. The ED (150% increase) under setting [4] is 756 µg/kg. Besides, under “means ± SEM”, the “Cardioselectivity: Change … at CF50” value is on record as -17 mm Hg, the “Inotropic Selectivity: Change … at CF50” value amounted to 5 BPM, the “Cardioselectivity: Change … at dP/dt75” value is given as -23 mm Hg and the “Inotropic Selectivity: Change … at dP/dt75” value is 10 BPM. For the same molecule, under “means ± SEM”, the “Cardioselectivity: Change … at CF100” value was -27 mm Hg, the “Inotropic Selectivity: Change … at CF100” value is 14 BPM, the “Cardioselectivity: Change … at dP/dt150” value is listed as -40 mm Hg and the “Inotropic Selectivity: Change … at dP/dt150” value was determined as 27 BPM.

Regarding `NCCc1ccc(O)c(O)c1` [E, 4-(2-aminoethyl)-1,2-benzenediol], under setting [1], the ED50 is 9.1 ± 1 µg/kg. Further, the ED (75% increase) under setting [2] was found to be 9.9 ± 0.7 µg/kg. In addition, the ED (100% increase) under setting [3] stood at 19.6 ± 2.7 µg/kg. In addition, under setting [4], the ED (150% increase) was determined as 23.7 ± 3 µg/kg. In addition, where the note is “means ± SEM”, the “Cardioselectivity: Change … at CF50” value is recorded as -20 ± 6 mm Hg, the “Inotropic Selectivity: Change … at CF50” value is recorded as 5 ± 5 BPM, the “Cardioselectivity: Change … at dP/dt75” value is -20 ± 7 mm Hg and the “Inotropic Selectivity: Change … at dP/dt75” value is given as 5 ± 6 BPM. For the setting “means ± SEM”, the “Cardioselectivity: Change … at CF100” value is recorded as -12 ± 9 mm Hg, the “Inotropic Selectivity: Change … at CF100” value was 12 ± 5 BPM, the “Cardioselectivity: Change … at dP/dt150” value is listed as -10 ± 8 mm Hg and the “Inotropic Selectivity: Change … at dP/dt150” value was found to be 13 ± 6 BPM.

Regarding `CC(C)NCC(O)c1ccc(O)c(O)c1` (stereo not shown) [F, 4-(1-hydroxy-2-((1-methylethyl)-amino)ethyl)-1,2-benzenediol], the ED (75% increase) under setting [2] came to 0.04 ± 0.01 µg/kg. Further, the ED (100% increase) under setting [3] was 0.09 ± 0.02 µg/kg. In addition, the ED (150% increase) under setting [4] was 0.14 ± 0.05 µg/kg. In addition, under “means ± SEM”, the “Cardioselectivity: Change … at CF50” value is -6 ± 2 mm Hg, the “Inotropic Selectivity: Change … at CF50” value was 14 ± 2 BPM, the “Cardioselectivity: Change … at dP/dt75” value was -6 ± 2 mm Hg and the “Inotropic Selectivity: Change … at dP/dt75” value stood at 14 ± 1 BPM. Besides, under “means ± SEM”, the “Cardioselectivity: Change … at CF100” value is -15 ± 2 mm Hg, the “Inotropic Selectivity: Change … at CF100” value was 34 ± 3 BPM, the “Cardioselectivity: Change … at dP/dt150” value is recorded as -16 ± 2 mm Hg and the “Inotropic Selectivity: Change … at dP/dt150” value is given as 41 ± 5 BPM.

As for `CC(CCc1ccc(O)cc1)NCCc1ccc(O)c(O)c1` (racemic) [D, (±)-4-(2(3-p-hydroxyphenyl-1-methylpropyl)amino) ethyl-1,2-benzenediol], under setting [1], the ED50 amounted to 1.4 ± 0.2 µg/kg. The ED (100% increase) under setting [3] is 4.4 µg/kg. For the same molecule, the ED (150% increase) under setting [4] is 4 ± 0.6 µg/kg. In addition, for the setting “means ± SEM”, the “Cardioselectivity: Change … at CF50” value came out at 3 ± 1 mm Hg, the “Inotropic Selectivity: Change … at CF50” value is given as 3 ± 1 BPM, the “Cardioselectivity: Change … at dP/dt75” value is on record as 4 ± 1 mm Hg and the “Inotropic Selectivity: Change … at dP/dt75” value was found to be 3 ± 1 BPM. Besides, under “means ± SEM”, the “Cardioselectivity: Change … at CF100” value came out at 4 ± 3 mm Hg, the “Inotropic Selectivity: Change … at CF100” value is given as 17 ± 5 BPM, the “Cardioselectivity: Change … at dP/dt150” value stood at 3 ± 3 mm Hg and the “Inotropic Selectivity: Change … at dP/dt150” value amounted to 13 ± 2 BPM.

`CC(CCc1ccc(O)cc1)NC1CCc2cc(O)c(O)cc2C1` (stereo not shown) [B, 2-(3-p-hydroxyphenyl-1-methylpropyl) amino-6,7-dihydroxy-1,2,3,4-tetrahydronaphthalene]: the ED50 under setting [1] worked out at 56.3 µg/kg. Under setting [2], the ED (75% increase) is 125 µg/kg. The ED (100% increase) under setting [3] came out at 198 µg/kg. Also, under setting [4], the ED (150% increase) worked out at 359 µg/kg. For the same molecule, under “means ± SEM”, the “Cardioselectivity: Change … at CF50” value is -13 mm Hg, the “Inotropic Selectivity: Change … at CF50” value was -17 BPM, the “Cardioselectivity: Change … at dP/dt75” value is recorded as 37 mm Hg and the “Inotropic Selectivity: Change … at dP/dt75” value is 0 BPM. For the setting “means ± SEM”, the “Cardioselectivity: Change … at CF100” value is reported as 57 mm Hg, the “Inotropic Selectivity: Change … at CF100” value is recorded as 15 BPM, the “Cardioselectivity: Change … at dP/dt150” value is listed as 75 mm Hg and the “Inotropic Selectivity: Change … at dP/dt150” value is 32 BPM.
